The subject of one experiment is RAW264.7 cells. The experiment is described as follows: RANKL-induced osteoclast differentiation, TRAP staining. Type of experiment: cell-based. As to conditions: RANKL 50 ng/mL. The protocol:
Three different culture systems were used for the in vitro osteoclast differentiation assay. In the first one, RAW264.7 cells were seeded onto 96-well plates at 1 × 10^3 cells/well and cultured overnight. Cells were then stimulated with recombinant mouse RANKL (Cat #: CR06, Novoprotein, Shanghai, China) at 50 ng/mL in the presence or absence of various concentrations of NTZ (0, 6.25, 12.5, 25 μM). […] Cells were then fixed in 4% paraformaldehyde for 10 min, rinsed with prewarmed deionized water, and stained with tartrate-resistant acid phosphatase (TRAP) using a kit from Sigma-Aldrich (Cat #: A387) to visualize osteoclasts (≥ 3 nuclei/cell). The effect of NTZ on osteoclast differentiation was determined by counting the number of multinucleated cells using the Image J software (Image J 1.48v).

Experiment [1] concerns MYBL2. As to the kind of experiment: MYBL2 immunohistochemical staining of bone tissues. Type of experiment: in vivo, Balb/c nude mice. As to conditions: treatment in mice. The protocol:
Immunohistochemical staining was conducted following established procedures. Briefly, 4-μm sections of bone tissues were deparaffinized in xylene and rehydrated in gradient ethanol. The endogenous antigen was retrieved by incubating slides in 10 mM sodium citrate buffer (Cat #: C1010, Solarbio, Beijing, China) overnight in an oven at 65°C. After antigen retrieving, tissue sections were incubated with 3% hydrogen peroxide at room temperature for 10 min to block the endogenous […] activity. They were then incubated in a blocking solution (0.1% albumin bovine V mixed with 10% goat serum) for 40 min, and a solution containing a primary antibody (MMP9, 1:1000, Cat #: ab76003, Abcam, Cambridge, UK; MYBL2, 1:100, Cat #: ab76009, Abcam) for 1.5 h. After rinsing with PBS for 3 times, slides were incubated with the secondary antibody solution for 15 min and then with the DAB solution using the MaxVision II HRP kit (Cat #: KIT-5920, MXB Biotechnologies, Fuzhou, China). Nuclei were counterstained with hematoxylin for 2 min. Slides were then dehydrated with gradient ethanol (75–100%) and xylene and mounted with coverslips using the quick-hardening mounting medium. All slides were scanned using an Aperio VERSA 8 Scanner System (Leica, Wetzlar, Germany) and analyzed using the Image J software (Image J 1.48v, NIH, Bethesda, MD, USA).

In another experiment the test system is PC-3-KQ cells. As to the kind of experiment: 3D spheroid invasion assay and screening of FDA-approved drugs. Type of experiment: cell-based, human. As to conditions: Homo sapiens; for activity at 0.01 µM / activity at 0.1 µM / activity at 1 µM / activity at 10 µM: 72 h, compared to vehicle control, read-out: Invasion rates (%) of each drug’s multiple concentrations. The method in brief:
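Cells were clustered into spheroids by centrifugation and grown 3 days, then embedded in matrigel-medium containing drug on day 4 and cultured another 3 days. Drugs were screened at 10 μM first, then at 0–10 μM, in duplicate wells. Invasion area is total area minus core sphere area from phase-contrast images.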

The test system of experiment [2] is MYBL2. The experiment is described as follows: MYBL2 expression by qRT-PCR and western blotting. Format: cell-based, human. Particulars: PC-3 and DU 145 cells expressing KLF5^K369Q; dose- or time-dependent. The protocol: Total RNA was extracted from cells using the Eastep Super total RNA extraction kit (Cat #: LS1040, Promega, Shanghai, China) and quantified using the NanoDrop One (Thermo Fisher Scientific, Madison, USA). Single-strand cDNA was synthesized from 1 μg of total RNA using the HiScript III All-in-one RT SuperMix kit (Cat #: R333-01, Vazyme, Nanjing, China). For qRT-PCR, the cDNA template was mixed with the SYBR Green reagent in enzyme-free water, and the Qtower3 touch system (Analytik Jena, Jena, Germany) was used for PCR with the following program: initial denaturation at 95°C for 5 min, 40 cycles of 95°C for 30 s, 60°C for 30 s, and 72 °C for 30 s, and a final melting for 15 s. GAPDH was used as an internal control. […].
Cells in 6-well plates were washed with cold PBS and collected in a lysis buffer containing phosphatase and protease inhibitors (Cat #: P1045, Beyotime) to extract proteins. After centrifugation for 10 min at 4°C in a refrigerated centrifuge, the supernatant was collected and mixed with the 4× loading buffer, boiled in a metal heat bath at 100°C for 10 min, and then subjected to 10% SDS-PAGE. Proteins were transferred onto an activated PVDF membrane (0.45 μm pore-size, Cat #: IPVH00010, Millipore, Carrigtwohill, Ireland). […]
(Real-time PCR tracks product formation cycle by cycle.)

The subject of experiment [3] is RAW264.7 cells co-cultured with PC-3-KQ cells. As to the kind of experiment: Osteoclast differentiation in co-culture of RAW264.7 and PC-3-KQ cells. Type of experiment: cell-based. Particulars: 1.25, 2.5, 5 μM, 7 days. The protocol:
The third in vitro assay involved direct co-culture between RAW264.7 cells and cancer cells. RAW264.7 cells were seeded in 96-well plates at 700 cells per well and allowed to adhere for 12 h. PC-3-KQ cells were added to each well at 300 cells/well, and the culture continued for 12 h. NTZ was added to treat cells for 48 h at various final concentrations (0, 1.25, 2.5, 5 μM). The RAW264.7 medium was mixed with the PC-3 medium at 7:3, and the mixture was used to replace the culture medium every 2 days. After 7 days, the osteoclast differentiation was determined as described above.

The mark [4] stands for this setting: secondary screening of 87 hit compounds (Table S1).
The mark [5] stands for this setting: third screening of 25 hit compounds (Table S2).

Like-named read-outs stand apart in the source and are kept apart here.

A word on the inhibition: it is the relative decrease from the control value, in per cent. For the compound `CC(=O)Oc1ccccc1C(=O)Nc1ncc([N+](=O)[O-])s1` [Nitazoxanide], the “number of TRAP^+ multinucleated cells” value with RAW264.7 cells (6.25 and 12.5 μM) is “significantly decreased”; with RAW264.7 cells (NTZ 0, 6.25, 12.5, 25 μM), “decreased the number of TRAP^+ multinucleated cells in a dose-dependent manner”; in experiment [3], “significantly decreased”. Also, the “MYBL2 protein expression in bone tissues (IHC)” value in the experiment with MYBL2 [1] is listed as “significantly decreased MYBL2 protein expression”. The activity at 0.01 µM in the experiment on PC-3-KQ cells (0.01 μM (first column so headed), secondary screening of 87 hit compounds (Table S1)) was 79.3%; with PC-3-KQ cells (0.01 μM (first column so headed), third screening of 25 hit compounds (Table S2)) it was 94.1%; in the experiment on PC-3-KQ cells (0.01 μM (second column so headed), secondary screening of 87 hit compounds (Table S1)) it was 79.5%; with PC-3-KQ cells (0.01 μM (second column so headed), third screening of 25 hit compounds (Table S2)) it was 94.3%. Moreover, the activity at 0.1 µM in the experiment on PC-3-KQ cells (setting [4]) turned out to be 45.6%; with PC-3-KQ cells (setting [5]) it was 44%. Further, the activity at 1 µM with PC-3-KQ cells (setting [4]) came to 4.45%; in the experiment on PC-3-KQ cells (setting [5]), 6.41%. Also, the figures for the activity at 10 µM in the experiment with PC-3-KQ cells (setting [4]) and in the experiment on PC-3-KQ cells (setting [5]) were 3.4% and 1.24%, respectively. Also, in the experiment with PC-3-KQ cells (at 0.1 μM, read-out: inhibition of cell invasion), the inhibition at 0.1 µM was > 50%. In addition, the “expression of MYBL2 (mRNA and protein)” value with MYBL2 [2] was “reduced the expression of MYBL2”.

(Values after PMC9945734 (BMC Medicine, 2023).)
